# According to US10519504B2, “Methods for treatment of oncological disorders using epimetabolic shifters, multidimensional intracellular molecules, or environmental influencers” (Berg LLC, priority 2009, dated 2019):
# Columns and labels:
# [1] = system: Pancreatic Cancer Cells (PaCa2); assay: Real-time PCR Angiogenesis Array; assay type: cell-based
# Procedure: Experiments were carried out essentially as described above.
# ATP Citrate Lyase (ACL) = assay: Western blot, ATP Citrate Lyase levels; assay type: cell-based, human; conditions: for ATP Citrate Lysase Normalized Intensity as % of control: glucose 5g, 48 h
# Procedure: The whole cell pellets were resuspended one at a time in 1 mL of C7 buffer and transferred to labeled 15 mL tubes. The samples were then sonicated in the cold room on ice using 6 sonic pulses with the setting at #14. The samples were spun for a short time to 2500 g after sonication and the samples transferred to 2 ml tubes. The pH was verified of each sample (pH should be 9.0) using the foam remaining in the […] sample tubes.
# After transfer each of the blots was placed in between 2 Whatman Filter papers and dried for 15-20 minutes. After drying the blots were labeled with the date, the type of samples and either blot 1 or blot 2 using a HB pencil. The molecular weight markers were outlined with the pencil and with single lines for the blue and a doublet for the colored markers. The blots were activated with methanol for 5 seconds, washed with water for 5 minutes, and TBST for 15 minutes. The blots were blocked for 1 hour with 5% blocking reagent in TBS-T at room temperature and then washed 3 times with TBS-T (1X−15′; 2X5′ each). Blot 1 was probed with the primary antibody for IDH1 (Cell Signaling #3997) in TBST with 5% BSA (at 1:1000 dilutions) and blot 2 with the rabbit polyclonal antibody for ATP Citrate Lyase in 5% BSA (Cell Signaling #4332) at 1:1000 dilution by incubation overnight at 4 deg C. with shaking. After the overnight incubation with primary antibodies, the blots were washed 3 times with TBS-T (1X−15′; 2X5′ each) and probed with the secondary antibody (antirabbit; 1:10,000 dilution) for 1 h on the orbital tilting shaker at room temperature. After 1 h of incubation with secondary antibodies, the blots were washed 3 times with TBS-T (1X−15′; 2X5′ each) and then incubated with ECF reagent for 5 mins and then each blot scanned with 5100 Fuji Laser scanner at 25 uM resolution, 16 bit, green laser, at 400V and at 500 V.
# The samples were processed and run on a 4-12% Bis-Tris Novex NuPAGE gel as described above. The gels were run, transferred and stained essentially as described above.
# The Isocitrate dehydrogenase blot was stripped by incubating for 30 minutes with methanol, followed by two 10 minute washes with TBS-T, then 30 minutes of incubation with stripping buffer at 50 deg C., and followed by two washes with 100 ml or more of TBS-T for 30′ each. The blot was scanned in laser scanner to check for complete stripping. The blot was activated with methanol for 5 seconds, washed with water for 5 minutes, and TBST for 15 minutes. The blot was blocked for 1 hour with 5% blocking reagent in TBS-T at room temperature and then washed 3 times with TBS-T (1X−15′; 2X5′ each). This was then probed with the rabbit polyclonal antibody for ATP Citrate Lyase in 5% BSA (Cell Signaling #4332) at 1:1000 dilution overnight at 4 deg C. with shaking. After the overnight incubation with primary antibody for ATP Citrate Lyase, the membrane was washed 3 times with TBS-T (1X−15′; 2X5′ each) and probed with the secondary antibody (antirabbit; 1:10,000 dilution) for 1 h on the orbital tilting shaker at room temperature. After 1 h of incubation with secondary antibodies, the blot was washed 3 times with TBS-T (1X−15′; 2X5′ each) and then incubated with ECF reagent for 5 minutes and then each blot scanned with 5100 Fuji Laser scanner at 25 uM resolution, 16 bit, green laser, at 400V and at 500 V.
# In this experiment (western blot experiment 3), and in all of the experiments described below in this Example (i.e., western blot experiments 4 through 9), the cells were additionally treated with either 5 mM glucose (“5G”) or 22 mM glucose (“22G”). The samples derived from the cells were processed and run on a 4-12% Bis-Tris Novex NuPAGE gel as described above. The gels were run, transferred and stained essentially as described above.
# The levels of IDH1, ATP citrate lyase and actin levels were determined by probing the blots with primary antibodies for IDH1, ATP citrate lyase and actin, essentially as described above.
smiles,measurement,setting,value
"COC1=C(OC)C(=O)C(C/C=C(\C)CC/C=C(\C)CC/C=C(\C)CC/C=C(\C)CC/C=C(\C)CC/C=C(\C)CC/C=C(\C)CC/C=C(\C)CC/C=C(\C)CCC=C(C)C)=C(C)C1=O [Q10, Coenzyme Q10]","angiogenesis array genes (AKT1, ANGPTL4 ... VEGFA, VEGFB as listed)",[1]; 100 uM Q10,modulated by Q10 treatment
same,genes from the angiogenesis array whose expression is regulated,"[1]; 100 μM Q10, genes: ANGPTL4, CDH5, FGF1, AKT1, ANPEP, CCL2, CXCL1, EDG1, EFNB2, EGF, ILIB, IL8, KDR, NRP1, PECAM1, PROK2, SPHK1, STAB1, VEGFA",A list of genes from the angiogenesis array whose expression is regulated
same,ATP Citrate Lysase Normalized Intensity as % of control,"ATP Citrate Lyase (ACL); HepG2, 50 uM",85 % of control
same,ATP Citrate Lysase Normalized Intensity as % of control,"ATP Citrate Lyase (ACL); HepG2, 100 uM",79 % of control
same,ATP Citrate Lysase Normalized Intensity as % of control,"ATP Citrate Lyase (ACL); PACA2, 50 uM",68 % of control
same,ATP Citrate Lysase Normalized Intensity as % of control,"ATP Citrate Lyase (ACL); PACA2, 100 uM",42 % of control
same,expression of ACL,ATP Citrate Lyase (ACL); cancer cells,dose-dependent decrease in the expression of ACL enzymes
same,expression of ACL,ATP Citrate Lyase (ACL); normal cells,trend towards increased expression of ACL
